Assays:
[1] = Cell viability measurement (MTS), Vero cells; format: cell-based; details: monkey
Description: (§1) Experimental Example 3: Cell Viability Measurement
(§2) Vero cell line (VERO01WCB-1201, Ministry of Food and Drug Safety, Republic of Korea), Calu-3 cell line (KCLB #30055, Korea Cell Line Bank (KCLB), Republic of Korea), CellTiter 96® AQueous One Solution Cell Proliferation Assay kit (Promega, cat. #G3582), and Infinite M200 microplate reader (Tecan).
Vero cells were cultured at 37 °C and 5% CO2 in DMEM medium supplemented with 10% fetal bovine serum, 100 units/mL penicillin, and 100 μg/mL streptomycin.
(§3) Vero cells or Calu-3 cells were seeded in 96-well microplates and cultured for 24 hours until the cell confluency reached 20%. After the incubation, compounds were treated in DMSO at concentrations (1, 3, and 10 μM) to reach 0.5% v/v in each well, and reacted at 37 °C for 48 hours. Into each well of the incubated 96-well microplate, 3-(4,5-dimethylthiazol-2-yl)-5-(3-carboxymethoxyphenyl)-2-(4-sulfophenyl)-2H-tetrazolium salt (MTS) assay solution [CellTiter 96® AQueous One Solution Cell Proliferation Assay kit (Promega)] mixed with DMEM medium at a ratio of 1:5, was dispensed at 100 μL/well and incubated at 37 °C for 1 hour. The 490 nm and 690 nm absorbance was then measured using an Infinite M200 instrument.
(§4) The cell viability (also, referred to as cell survival rate) (%) by compound treatment was calculated using the following analysis method. The 690 nm background absorbance value was subtracted from the measured 490 nm absorbance value. Then, to obtain the cell viability of each test group, the viability of the DMSO-treated group that was not treated with the compound was set to 100% and then the relative viability 1 of each compound was calculated. Two to six repeated tests were performed to obtain the results, and the mean values of the results were categorized into the following ranges and shown in Table 5 below (A: 80% survived, B: 50-80% survived, N/A: not tested)

[2] = Cell viability measurement (MTS), Calu-3 cells; format: cell-based; details: human
Description: as §1, §2
Calu-3 cells were cultured at 37 °C and 5% CO2 in MEM medium supplemented with 10% fetal bovine serum, 2.2 g/L sodium bicarbonate, 1% 100 units/mL penicillin, and 100 μg/mL streptomycin.
as §3, §4

SMILES | viability at 48 h, 1 µM [2] [%] | viability at 48 h, 3 µM [2] [%] | viability at 48 h, 10 µM [2] [%] | other results
FC(F)(F)c1ccc2nc(-c3cccc(Nc4ccc(-c5ccccc5)nn4)c3)[nH]c2c1 [Example 1, 6-phenyl-N-(3-(6-(trifluoromethyl)-1H-benzo[d]imidazol-2-yl)phenyl)pyridazin-3-amine] | – | – | – | viability at 48 h, 1 µM [1]: > 80%; viability at 48 h, 3 µM [1]: > 80%
CC(C)(C)c1ccc2nc(-c3cccc(Nc4ccc(-c5ccccc5)nn4)c3)[nH]c2c1 [Example 3, N-[3-(6-tert-butyl-1H-benzo[d]imidazol-2-yl)phenyl]-6-phenylpyridazin-3-amine] | – | – | – | viability at 48 h, 1 µM [1]: > 80%; viability at 48 h, 3 µM [1]: 50 to 80%
c1ccc(-c2ccc(Nc3cccc(-c4nc5ccccc5[nH]4)c3)cc2)cc1 [Example 19, N-[3-(1H-benzo[d]imidazol-2-yl)phenyl]-[1,1′-biphenyl]-4-amine] | 50 to 80 | 50 to 80 | – | –
c1cc(Nc2ccc(-c3ccncc3)cc2)cc(-c2nc3ccccc3[nH]2)c1 [Example 33, N-[3-(1H-benzo[d]imidazol-2-yl)phenyl]-4-(pyridin-4-yl)aniline] | 50 to 80 | – | – | –
c1cc(Nc2ncc(-c3cccnn3)cn2)cc(-c2nc3cnccc3[nH]2)c1 [Example 49, N-(3-{1H-imidazolo[4,5-c]pyridin-2-yl}phenyl)-5-(pyridazin-3-yl)pyrimidin-2-amine] | > 80 | > 80 | > 80 | –
c1cc(Nc2ncc(-c3cccnn3)cn2)cc(-c2nc3ccccc3[nH]2)c1 [Example 53, N-[3-(1H-benzo[d]imidazol-2-yl)phenyl]-5-(pyridazin-3-yl)pyrimidin-2-amine] | > 80 | 50 to 80 | 50 to 80 | –
c1cc(Nc2ccc(-c3ccncn3)cn2)cc(-c2nc3ccccc3[nH]2)c1 [Example 68, N-[3-(1H-benzo[d]imidazol-2-yl)phenyl]-5-(pyrimidin-4-yl)pyridin-2-amine] | 50 to 80 | – | – | –
c1cnc(-c2ccc(Nc3cccc(-c4nc5ccccc5[nH]4)c3)nc2)nc1 [Example 69, N-(3-(1H-benzo[d]imidazol-2-yl)phenyl)-5-(pyrimidin-2-yl)pyridin-2-amine] | > 80 | – | – | –
c1cc(Nc2ncc(-c3cncnc3)cn2)cc(-c2nc3ccccc3[nH]2)c1 [Example 70, N-[3-(1H-benzo[d]imidazol-2-yl)phenyl]-[5,5′-bipyrimidin]-2-amine] | > 80 | 50 to 80 | – | –
c1cnc(-c2cnc(Nc3cccc(-c4nc5ccccc5[nH]4)c3)nc2)nc1 [Example 71, N-[3-(1H-benzo[d]imidazol-2-yl)phenyl]-[2,5′-bipyrimidin]-2′-amine] | > 80 | 50 to 80 | – | –
c1ccc(-c2ccc(Nc3cccc(-c4nc5ccccc5[nH]4)c3)cn2)cc1 [Example 80, N-[3-(1H-benzo[d]imidazol-2-yl)phenyl]-6-phenyl-pyridin-3-amine] | > 80 | 50 to 80 | – | –
Fc1ccc2nc(-c3cccc(Nc4ccc(-c5ccccn5)cc4)c3)[nH]c2c1 [Example 92, 3-(6-fluoro-1H-benzo[d]imidazol-2-yl)-N-[4-(2-pyridyl)phenyl]aniline] | 50 to 80 | – | – | –
c1cc(Nc2ccc(-c3ccnnc3)cc2)cc(-c2nc3ccccc3[nH]2)c1 [Example 94, 3-(1H-benzo[d]imidazol-2-yl)-N-(4-pyridazin-4-ylphenyl)aniline] | 50 to 80 | – | – | –
Fc1cc2nc(-c3cccc(Nc4ccc(-c5ccncn5)cc4)c3)[nH]c2cc1F [Example 95, 3-(5,6-difluoro-1H-benzo[d]imidazol-2-yl)-N-(4-pyrimidin-4-ylphenyl)aniline] | 50 to 80 | – | – | –
c1cc(Nc2ccc(C3CCCCC3)cc2)cc(-c2nc3ccccc3[nH]2)c1 [Example 97, 3-(1H-benzo[d]imidazol-2-yl)-N-(4-cyclohexylphenyl)aniline] | > 80 | 50 to 80 | – | –
FC(F)(F)c1ccc2nc(-c3cccc(Nc4ccc(-c5ccccn5)cc4)c3)[nH]c2c1 [Example 98, N-[4-(2-pyridyl)phenyl]-3-[6-(trifluoromethyl)-1H-benzo[d]imidazol-2-yl]aniline] | 50 to 80 | – | – | –

SMILES | viability at 48 h, 1 µM [2] [%] | viability at 48 h, 3 µM [2] [%] | viability at 48 h, 10 µM [2] [%] | other results
Fc1cc2nc(-c3cccc(Nc4ncc(-c5cccnn5)cn4)c3)[nH]c2cc1F [Example 99, N-[3-(5,6-difluoro-1H-benzo[d]imidazol-2-yl)phenyl]-5-pyridazin-3-yl-pyrimidin-2-amine] | > 80 | > 80 | > 80 | –
FC(F)(F)c1ccc2nc(-c3cccc(Nc4ccc(-c5ncccn5)cn4)c3)[nH]c2c1 [Example 100, 5-pyrimidin-2-yl-N-[3-[6-(trifluoromethyl)-1H-benzo[d]imidazol-2-yl]phenyl]pyridin-2-amine] | 50 to 80 | – | – | –
Cc1cccc2nc(-c3cccc(Nc4ccc(-c5cccnn5)cc4)c3)[nH]c12 [Example 101, 3-(7-methyl-1H-benzo[d]imidazol-2-yl)-N-(4-pyridazin-3-ylphenyl)aniline] | > 80 | – | – | –
FC(F)(F)c1cc2[nH]c(-c3cccc(Nc4ncc(-c5cccnn5)cn4)c3)nc2cn1 [Example 103, 5-pyridazin-3-yl-N-[3-[6-(trifluoromethyl)-1H-imidazo[4,5-c]pyridin-2-yl]phenyl]pyrimidin-2-amine] | > 80 | > 80 | > 80 | –
Fc1cc2[nH]c(-c3cccc(Nc4ccc(-c5cccnn5)cc4)c3)nc2cc1C(F)(F)F [Example 104, 3-[6-fluoro-5-(trifluoromethyl)-1H-benzo[d]imidazol-2-yl]-N-(4-pyridazin-3-ylphenyl)aniline] | 50 to 80 | 50 to 80 | – | –
CC(C)(C)c1ccc2nc(-c3cccc(Nc4ccc(-c5cccnn5)cc4)c3)[nH]c2c1 [Example 107, 3-(6-tert-butyl-1H-benzo[d]imidazol-2-yl)-N-(4-pyridazin-3-ylphenyl)aniline] | > 80 | – | – | –
COc1ccc2nc(-c3cccc(Nc4ncc(-c5cccnn5)cn4)c3)[nH]c2c1 [Example 108, N-[3-(6-methoxy-1H-benzo[d]imidazol-2-yl)phenyl]-5-pyridazin-3-yl-pyrimidin-2-amine] | > 80 | > 80 | > 80 | –
FC(F)(F)Oc1ccc2nc(-c3cccc(Nc4ccc(-c5ccncn5)cc4)c3)[nH]c2c1 [Example 109, N-(4-pyrimidin-4-ylphenyl)-3-[6-(trifluoromethoxy)-1H-benzo[d]imidazol-2-yl]aniline] | 50 to 80 | – | – | –
FC(F)(F)Oc1ccc2nc(-c3cccc(Nc4ncc(-c5ccccn5)cn4)c3)[nH]c2c1 [Example 118, 5-(2-pyridyl)-N-[3-[6-(trifluoromethoxy)-1H-benzo[d]imidazol-2-yl]phenyl]pyrimidin-2-amine] | – | – | 50 to 80 | –
FC(F)(F)Oc1cc2nc(-c3cccc(Nc4ncc(-c5cccnn5)cn4)c3)[nH]c2cc1Cl [Example 120, N-[3-[6-chloro-5-(trifluoromethoxy)-1H-benzo[d]imidazol-2-yl]phenyl]-5-pyridazin-3-yl-pyrimidin-2-amine] | – | – | > 80 | –
Fc1cc2[nH]c(-c3cccc(Nc4ncc(-c5ccccn5)cn4)c3)nc2cn1 [Example 286, N-(3-(6-fluoro-1H-imidazo[4,5-c]pyridin-2-yl)phenyl)-5-(pyridin-2-yl)pyrimidin-2-amine] | – | – | > 80 | –
FC(F)(F)Oc1ccc2nc(-c3cccc(Nc4ncc(-c5cccnn5)cn4)c3)[nH]c2c1 [Example 295, 5-(pyridazin-3-yl)-N-(3-(6-(trifluoromethoxy)-1H-benzo[d]imidazol-2-yl)phenyl)pyrimidin-2-amine] | – | – | > 80 | –
Fc1cc2nc(-c3cccc(Nc4cnc(-c5ccncn5)cn4)c3)[nH]c2cc1F [Example 297, N-(3-(5,6-difluoro-1H-benzo[d]imidazol-2-yl)phenyl)-5-(pyrimidin-4-yl)pyrazin-2-amine] | – | – | > 80 | –
FC(F)Oc1ccc2nc(-c3cccc(Nc4cnc(-c5ccccn5)cn4)c3)[nH]c2c1 [Example 300, N-(3-(6-(difluoromethoxy)-1H-benzo[d]imidazol-2-yl)phenyl)-5-(pyridin-2-yl) pyrazin-2-amine] | – | – | > 80 | –
Clc1cc2[nH]c(-c3cccc(Nc4cnc(-c5ccccn5)cn4)c3)nc2cn1 [Example 301, N-(3-(6-chloro-1H-imidazo[4,5-c]pyridin-2-yl)phenyl)-5-(pyridin-2-yl)pyrazin-2-amine] | – | – | > 80 | –
Clc1cc2[nH]c(-c3cccc(Nc4ncc(-c5cscn5)cn4)c3)nc2cn1 [Example 303, N-(3-(6-chloro-1H-imidazo[4,5-c]pyridin-2-yl)phenyl)-5-(thiazol-4-yl)pyrimidin-2-amine] | – | – | 50 to 80 | –
